From US10947254B2, “Methods for treating ulcerative colitis using 3-((1R,3s,5S)-3-((7-((5-methyl-1H-pyrazol-3-yl)amino)-1,6-naphthyridin-5-yl)amino)-8-azabicyclo[3.2.1]octan-8-yl)propanenitrile” (priority 2015, dated 2021) come the findings set out here.

Structures are written as SMILES.

Assay [1] relates to IL-13 induced STAT6 phosphorylation in BEAS-2B human lung epithelial cells. The following applies: BEAS-2B cells.
For assay [2], the system named is oxazolone-induced colitis. Description: Mouse model of oxazolone-induced colitis. The class given is in vivo, BALB/C mice. The following applies: mice, PO, 1, 3, and/or 10 mg/kg BID (doses up to 10 mg/kg BID). The procedure:
Assay 7: Mouse Model of Oxazalone-Induced Colitis
Oxazolone-induced colitis is an experimental model that has a histological resemblance to human ulcerative colitis (Heller et al. Immunology, 2002, 17, 629-638). Adult BALB/C mice from Harlan were used in the assay. On day 1, animals were lightly anesthetized with isoflurane and the hairs between the shoulder were carefully removed before oxazolone (4%, 150 μL, 4:1 acetone:olive oil formulation) or vehicle solution was slowly applied for skin sensitization. Seven days after skin sensitization, the mice were fasted overnight, anesthetized with isoflurane inhalation, and a 1 mL syringe equipped with a 3.5-F catheter, filled with oxazolone solution, was inserted carefully about 4 cm into the colon of the mouse. Following insertion, 50 μL of the oxazolone solution (1%, 1:1 ethanol:water formulation) was injected very slowly (over 30 sec using an injection pump) into the colon. The catheter was removed and the mice were held vertically (head down) for 2 min to ensure that the entire oxazolone solution remained inside the colon. Drug treatment (PO, BID or TID) or vehicle was initiated a day prior to the oxazolone intrarectal (IR) challenge. Two-day post oxazolone intrarectal challenge, the Disease Activity Index (DAI) was assessed by treatment-blinded experimenters for each mouse according to the criteria score: stool consistency score (0, normal; 2, loose; 4, diarrhea), gross bleeding score (0, absence; 2, blood tinged; 4, presence), and weight loss score (0, none; 1, 1%-5%; 2, 5%-10%; 3, 10%-20%; 4, more than 20%); DAI=average of (stool consistency score+gross bleeding score+weight loss score).
Selected compounds of the invention were tested in the assay. Efficacy in the model is evidenced by a decrease in DAI score as compared with the score from vehicle treated animals.

For assay [3], the system named is IL-4 induced STAT6 phosphorylation in THP-1 human monocytic cells. As to conditions: THP-1 cells.
Assay [4] deals with JAK1 (Homo sapiens (Human), UniProt P23458). In kind it is biochemical. On the procedure:
(§1) Assay 1: Biochemical JAK and Off-Target Kinase Assays
(§2) A panel of four LanthaScreen JAK biochemical assays (JAK1, 2, 3 and Tyk2) were carried in a common kinase reaction buffer (50 mM HEPES, pH 7.5, 0.01% Brij-35, 10 mM MgCl2, and 1 mM EGTA). Recombinant GST-tagged JAK enzymes and a GFP-tagged STAT1 peptide substrate were obtained from Life Technologies.
(§3) Serially diluted compounds were pre-incubated with each of the four JAK enzymes and the substrate in white 384-well microplates (Corning) at ambient temperature for 1 h. ATP was subsequently added to initiate the kinase reactions in 10 μL total volume, with 1% DMSO. […] Kinase reactions were allowed to proceed for 1 hour at ambient temperature before a 10 μL preparation of EDTA (10 mM final concentration) and Tb-anti-pSTAT1 (pTyr701) antibody (Life Technologies, 2 nM final concentration) in TR-FRET dilution buffer (Life Technologies) was added. The plates were allowed to incubate at ambient temperature for 1 h before being read on the EnVision reader (Perkin Elmer).
(§4) Results were expressed as pIC50 (negative logarithm of IC50) and subsequently converted to pKi (negative logarithm of dissociation constant, Ki) using the Cheng-Prusoff equation.

In assay [5] the target is TYK2 (Homo sapiens (Human), UniProt P29597). The class given is biochemical. On the procedure:
as §1, §2, §3, §4

Assay [6] addresses JAK3 (Homo sapiens (Human), UniProt P52333). The experiment in a line: Biochemical JAK assay (LanthaScreen), JAK3. The procedure: as §1, §2
Serially diluted compounds were pre-incubated with each of the four JAK enzymes and the substrate in white 384-well microplates (Corning) at ambient temperature for 1 h. ATP was subsequently added to initiate the kinase reactions in 10 μL total volume, with 1% DMSO. […] The plates were allowed to incubate at ambient temperature for 1 h before being read on the EnVision reader (Perkin Elmer).
as §4
In general terms: TR-FRET usually uses a lanthanide donor and a delayed reading to cut background.

JAK3, sequence (P52333 whole entry): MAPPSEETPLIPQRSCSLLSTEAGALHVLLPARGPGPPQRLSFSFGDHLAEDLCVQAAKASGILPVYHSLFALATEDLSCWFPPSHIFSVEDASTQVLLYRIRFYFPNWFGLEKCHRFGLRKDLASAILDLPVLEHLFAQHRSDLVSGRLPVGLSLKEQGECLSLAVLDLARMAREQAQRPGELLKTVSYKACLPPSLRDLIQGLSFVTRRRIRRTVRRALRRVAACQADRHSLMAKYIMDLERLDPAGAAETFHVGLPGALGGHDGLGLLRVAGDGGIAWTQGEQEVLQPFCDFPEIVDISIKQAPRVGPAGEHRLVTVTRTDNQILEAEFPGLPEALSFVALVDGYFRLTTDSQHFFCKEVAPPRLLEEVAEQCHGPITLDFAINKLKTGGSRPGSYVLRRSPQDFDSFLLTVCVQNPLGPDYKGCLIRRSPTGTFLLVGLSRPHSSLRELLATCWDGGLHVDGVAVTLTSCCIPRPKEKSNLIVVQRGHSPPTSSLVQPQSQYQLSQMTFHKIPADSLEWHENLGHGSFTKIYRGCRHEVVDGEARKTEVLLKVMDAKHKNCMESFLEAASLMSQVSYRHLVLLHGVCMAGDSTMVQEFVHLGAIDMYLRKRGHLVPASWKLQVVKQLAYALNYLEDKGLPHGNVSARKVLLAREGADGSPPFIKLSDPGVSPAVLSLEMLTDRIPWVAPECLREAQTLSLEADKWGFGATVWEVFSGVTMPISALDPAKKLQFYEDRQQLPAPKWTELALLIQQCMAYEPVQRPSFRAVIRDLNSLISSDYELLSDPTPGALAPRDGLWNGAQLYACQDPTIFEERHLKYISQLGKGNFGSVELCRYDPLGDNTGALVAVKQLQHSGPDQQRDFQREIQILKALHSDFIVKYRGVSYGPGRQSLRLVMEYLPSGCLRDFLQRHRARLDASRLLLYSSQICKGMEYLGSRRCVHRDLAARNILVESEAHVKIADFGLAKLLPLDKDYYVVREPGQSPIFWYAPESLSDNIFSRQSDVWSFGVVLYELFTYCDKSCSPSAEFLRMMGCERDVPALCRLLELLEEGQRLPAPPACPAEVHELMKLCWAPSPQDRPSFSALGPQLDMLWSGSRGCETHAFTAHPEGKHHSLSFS
TYK2, sequence (P29597 whole entry): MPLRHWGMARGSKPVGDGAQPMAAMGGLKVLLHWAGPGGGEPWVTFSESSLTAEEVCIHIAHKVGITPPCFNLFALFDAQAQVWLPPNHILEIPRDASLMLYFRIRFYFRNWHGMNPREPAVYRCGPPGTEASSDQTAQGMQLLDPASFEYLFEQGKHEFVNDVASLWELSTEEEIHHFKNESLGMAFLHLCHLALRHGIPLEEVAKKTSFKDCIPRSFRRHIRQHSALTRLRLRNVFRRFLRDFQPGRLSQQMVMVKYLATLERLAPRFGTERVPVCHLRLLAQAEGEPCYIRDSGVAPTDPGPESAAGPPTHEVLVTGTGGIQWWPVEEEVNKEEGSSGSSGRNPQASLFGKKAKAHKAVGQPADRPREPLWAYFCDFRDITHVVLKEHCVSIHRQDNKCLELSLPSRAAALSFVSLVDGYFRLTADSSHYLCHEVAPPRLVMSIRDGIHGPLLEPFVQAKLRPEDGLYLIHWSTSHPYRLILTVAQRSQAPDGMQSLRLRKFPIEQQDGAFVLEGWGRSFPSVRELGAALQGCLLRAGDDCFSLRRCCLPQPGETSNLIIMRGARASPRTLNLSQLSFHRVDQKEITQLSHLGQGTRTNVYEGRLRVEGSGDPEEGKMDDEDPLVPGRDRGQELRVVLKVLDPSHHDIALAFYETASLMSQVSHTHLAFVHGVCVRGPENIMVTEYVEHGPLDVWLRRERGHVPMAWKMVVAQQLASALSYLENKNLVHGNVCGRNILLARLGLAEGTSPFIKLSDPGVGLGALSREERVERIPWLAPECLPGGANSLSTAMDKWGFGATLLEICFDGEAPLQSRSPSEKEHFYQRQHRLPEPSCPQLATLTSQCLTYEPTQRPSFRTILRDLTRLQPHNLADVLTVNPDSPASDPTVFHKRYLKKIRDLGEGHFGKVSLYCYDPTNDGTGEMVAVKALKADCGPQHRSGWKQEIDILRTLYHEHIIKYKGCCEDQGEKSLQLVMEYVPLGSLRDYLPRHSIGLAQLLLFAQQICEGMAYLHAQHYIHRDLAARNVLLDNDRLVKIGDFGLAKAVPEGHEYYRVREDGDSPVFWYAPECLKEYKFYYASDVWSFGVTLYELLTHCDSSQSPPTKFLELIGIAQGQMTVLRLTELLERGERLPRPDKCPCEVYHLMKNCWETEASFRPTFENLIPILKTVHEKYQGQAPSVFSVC
JAK1, sequence (P23458 whole entry): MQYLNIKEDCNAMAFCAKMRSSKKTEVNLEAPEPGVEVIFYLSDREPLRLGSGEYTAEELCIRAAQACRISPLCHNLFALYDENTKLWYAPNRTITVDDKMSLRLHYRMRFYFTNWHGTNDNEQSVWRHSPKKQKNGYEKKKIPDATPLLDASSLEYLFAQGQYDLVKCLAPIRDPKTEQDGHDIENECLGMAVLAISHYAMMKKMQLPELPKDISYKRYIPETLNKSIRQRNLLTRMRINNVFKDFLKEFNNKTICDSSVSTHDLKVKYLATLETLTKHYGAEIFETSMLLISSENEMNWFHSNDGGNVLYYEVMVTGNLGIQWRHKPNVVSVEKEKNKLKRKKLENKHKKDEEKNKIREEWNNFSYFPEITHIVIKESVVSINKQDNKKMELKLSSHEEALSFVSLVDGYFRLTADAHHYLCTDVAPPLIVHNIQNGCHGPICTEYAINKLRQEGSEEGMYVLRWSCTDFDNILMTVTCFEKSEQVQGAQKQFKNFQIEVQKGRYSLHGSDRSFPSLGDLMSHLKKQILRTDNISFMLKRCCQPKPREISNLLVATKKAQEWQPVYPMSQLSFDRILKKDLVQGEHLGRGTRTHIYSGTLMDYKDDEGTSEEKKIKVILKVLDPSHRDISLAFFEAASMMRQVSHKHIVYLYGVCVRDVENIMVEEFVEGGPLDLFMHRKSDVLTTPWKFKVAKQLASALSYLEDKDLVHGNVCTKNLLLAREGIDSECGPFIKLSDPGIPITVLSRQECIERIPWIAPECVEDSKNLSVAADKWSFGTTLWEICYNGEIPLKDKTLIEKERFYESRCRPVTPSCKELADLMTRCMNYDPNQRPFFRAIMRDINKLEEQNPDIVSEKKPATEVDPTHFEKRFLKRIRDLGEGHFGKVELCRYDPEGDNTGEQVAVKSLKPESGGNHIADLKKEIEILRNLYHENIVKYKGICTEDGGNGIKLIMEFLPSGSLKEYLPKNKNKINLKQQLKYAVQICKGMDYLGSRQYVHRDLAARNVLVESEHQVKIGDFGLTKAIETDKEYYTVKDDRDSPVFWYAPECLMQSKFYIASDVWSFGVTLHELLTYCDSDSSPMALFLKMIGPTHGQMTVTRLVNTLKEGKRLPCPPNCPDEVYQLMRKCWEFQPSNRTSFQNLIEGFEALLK

With `CCC(C)C(=O)N1C2CCC1CC(Nc1nc(Nc3cc(C)[nH]n3)cc3ncccc13)C2` (centres unmarked) [Example 2-6], in assay [1], the “BEAS2B pIC50” value was “A (A represents a pEC50 value ≥7.5 (EC50≤32 nM))”. Also, the “decrease in DAI score as compared with vehicle treated animals” value (“decrease in DAI score” for short) in assay [2] is on record as “did not exhibit a statistically significant decrease”.
With `Cc1cc(Nc2cc3ncccc3c(N[C@@H]3C[C@H]4CC[C@@H](C3)N4C(=O)C3(C(F)(F)F)CC3)n2)n[nH]1` [Example 2-7], the “THP-1 IL4 pIC50” value in assay [3] was “B (B represents a pEC50 value between 6.7 and 7.5 (EC50 between 200 nM and 32 nM))”. Besides, the “JAK 1 (pKi)” value in assay [4] was “B (B represents a pKi value between 9 and 10 (Ki between 1 nM and 0.1 nM))”. Further, the “Tyk 2 (pKi)” value in assay [5] was “C (C represents a pKi value between 7 and 9 (Ki between 100 nM and 1 nM))”. The “JAK 3 (pKi)” value in assay [6] was “C (C represents a pKi value between 7 and 9 (Ki between 100 nM and 1 nM))”.
Turning to `CCOCC(=O)N1[C@@H]2CCC[C@H]1C[C@H](Nc1nc(Nc3cc(C)[nH]n3)cc3ncccc13)C2` [Example 2-17], in assay [1], the “BEAS2B pIC50” value is on record as “A (A represents a pEC50 value ≥7.5 (EC50≤32 nM))”. Moreover, the “decrease in DAI score” value in assay [2] is given as “did not exhibit a statistically significant decrease”.
For the compound `Cc1cc(Nc2cc3ncccc3c(N[C@@H]3C[C@H]4CCC[C@@H](C3)N4C(=O)C3(C(F)(F)F)CC3)n2)n[nH]1` [Example 2-19], the “THP-1 IL4 pIC50” value in assay [3] is reported as “A (A represents a pEC50 value ≥7.5 (EC50≤32 nM))”. The “JAK 1 (pKi)” value in assay [4] is “B (B represents a pKi value between 9 and 10 (Ki between 1 nM and 0.1 nM))”. Further, the “Tyk 2 (pKi)” value in assay [5] is “B (B represents a pKi value between 9 and 10 (Ki between 1 nM and 0.1 nM))”. Moreover, in assay [6], the “JAK 3 (pKi)” value was “C (C represents a pKi value between 7 and 9 (Ki between 100 nM and 1 nM))”.
With `Cc1cc(Nc2cc3ncccc3c(N[C@@H]3C[C@H]4CCC[C@@H](C3)N4C(=O)C(C)(C)CO)n2)n[nH]1` [Example 2-22], the “BEAS2B pIC50” value in assay [1] was “A (A represents a pEC50 value ≥7.5 (EC50≤32 nM))”. Moreover, in assay [2], the “decrease in DAI score” value is “did not exhibit a statistically significant decrease”.
`Cc1cc(Nc2cc3ncccc3c(N[C@@H]3C[C@H]4CCC[C@@H](C3)N4C(=O)Cc3ccccc3)n2)n[nH]1` [Example 2-24]: in assay [1], the “BEAS2B pIC50” value is “A (A represents a pEC50 value ≥7.5 (EC50≤32 nM))”. Besides, in assay [2], the “decrease in DAI score” value is “did not exhibit a statistically significant decrease”. For the same compound, the “THP-1 IL4 pIC50” value in assay [3] was “A (A represents a pEC50 value ≥7.5 (EC50≤32 nM))”.
Turning to `Cc1cc(Nc2cc3ncccc3c(N[C@@H]3C[C@H]4CC[C@@H](C3)N4S(=O)(=O)CC(C)C)n2)n[nH]1` [Example 4-3], the “BEAS2B pIC50” value in assay [1] is “A (A represents a pEC50 value ≥7.5 (EC50≤32 nM))”. The “decrease in DAI score” value in assay [2] is listed as “did not exhibit a statistically significant decrease”. The “THP-1 IL4 pIC50” value in assay [3] is “A (A represents a pEC50 value ≥7.5 (EC50≤32 nM))”.
On to `Cc1cc(Nc2cc3ncccc3c(N[C@@H]3C[C@H]4CC[C@@H](C3)N4S(=O)(=O)Cc3ccccc3)n2)n[nH]1` [Example 4-13], for which the “BEAS2B pIC50” value in assay [1] is “A (A represents a pEC50 value ≥7.5 (EC50≤32 nM))”. The “decrease in DAI score” value in assay [2] is recorded as “did not exhibit a statistically significant decrease”.
Turning to `Cc1cc(Nc2cc3ncccc3c(N[C@@H]3C[C@H]4CCC[C@@H](C3)N4S(=O)(=O)C3CC3)n2)n[nH]1` [Example 4-18], the “BEAS2B pIC50” value in assay [1] is on record as “A (A represents a pEC50 value ≥7.5 (EC50≤32 nM))”. Moreover, in assay [2], the “decrease in DAI score” value is recorded as “did not exhibit a statistically significant decrease”. Also, in assay [3], the “THP-1 IL4 pIC50” value is reported as “A (A represents a pEC50 value ≥7.5 (EC50≤32 nM))”.
In the case of `COCCS(=O)(=O)N1[C@@H]2CCC[C@H]1C[C@H](Nc1nc(Nc3cc(C)[nH]n3)cc3ncccc13)C2` [Example 4-19], the “BEAS2B pIC50” value in assay [1] is “A (A represents a pEC50 value ≥7.5 (EC50≤32 nM))”. For the same compound, in assay [2], the “decrease in DAI score” value is given as “did not exhibit a statistically significant decrease”. In addition, the “THP-1 IL4 pIC50” value in assay [3] is on record as “A (A represents a pEC50 value ≥7.5 (EC50≤32 nM))”.
For `Cc1cc(Nc2cc3ncccc3c(N[C@@H]3C[C@H]4CCC[C@@H](C3)N4S(=O)(=O)CC3CC3)n2)n[nH]1` [Example 4-23], the “BEAS2B pIC50” value in assay [1] was “A (A represents a pEC50 value ≥7.5 (EC50≤32 nM))”. In addition, the “decrease in DAI score” value in assay [2] is given as “did not exhibit a statistically significant decrease”. Moreover, the “THP-1 IL4 pIC50” value in assay [3] was “A (A represents a pEC50 value ≥7.5 (EC50≤32 nM))”.
For the compound `Cc1cc(Nc2cc3nc(CO)ccc3c(N[C@@H]3C[C@H]4CC[C@@H](C3)N4CCC#N)n2)n[nH]1` [Example 5-11], the “decrease in DAI score” value in assay [2] is “did not exhibit a statistically significant decrease”. The “THP-1 IL4 pIC50” value in assay [3] is “A (A represents a pEC50 value ≥7.5 (EC50≤32 nM))”.
In the case of `Cc1cnc2cc(Nc3cc(C)[nH]n3)nc(N[C@@H]3C[C@H]4CC[C@@H](C3)N4S(C)(=O)=O)c2c1` [Example 6-5], in assay [1], the “BEAS2B pIC50” value is on record as “A (A represents a pEC50 value ≥7.5 (EC50≤32 nM))”. Besides, the “THP-1 IL4 pIC50” value in assay [3] was “A (A represents a pEC50 value ≥7.5 (EC50≤32 nM))”. Besides, in assay [4], the “JAK 1 (pKi)” value was “B (B represents a pKi value between 9 and 10 (Ki between 1 nM and 0.1 nM))”. For the same compound, the “Tyk 2 (pKi)” value in assay [5] was “B (B represents a pKi value between 9 and 10 (Ki between 1 nM and 0.1 nM))”. Further, the “JAK 3 (pKi)” value in assay [6] is “C (C represents a pKi value between 7 and 9 (Ki between 100 nM and 1 nM))”.
On to `COC(=O)c1cnc2cc(Nc3cc(C)[nH]n3)nc(N[C@@H]3C[C@H]4CC[C@@H](C3)N4CCCF)c2c1` [Example 6-44], for which, in assay [4], the “JAK 1 (pKi)” value was “B (B represents a pKi value between 9 and 10 (Ki between 1 nM and 0.1 nM))”.
In the case of `COC(=O)c1cnc2cc(Nc3cc(C)[nH]n3)nc(N[C@@H]3C[C@H]4CCC[C@@H](C3)N4C3CCOC(=O)C3)c2c1` (some centres unmarked) [Example 6-48], the “THP-1 IL4 pIC50” value in assay [3] is “B (B represents a pEC50 value between 6.7 and 7.5 (EC50 between 200 nM and 32 nM))”. Besides, the “JAK 1 (pKi)” value in assay [4] was “B (B represents a pKi value between 9 and 10 (Ki between 1 nM and 0.1 nM))”. The “Tyk 2 (pKi)” value in assay [5] is “C (C represents a pKi value between 7 and 9 (Ki between 100 nM and 1 nM))”. Besides, the “JAK 3 (pKi)” value in assay [6] is “C (C represents a pKi value between 7 and 9 (Ki between 100 nM and 1 nM))”.
Take `Cc1cc(Nc2cc3ncccc3c(N[C@@H]3C[C@H]4CCC[C@@H](C3)N4S(=O)(=O)c3ccccc3)n2)n[nH]1` [Example 9, N^7-(5-methyl-1H-pyrazol-3-yl)-N^5-((1R,3s,5S)-9-(phenylsulfonyl)-9-azabicyclo[3.3.1]nonan-3-yl)-1,6-naphthyridine-5,7-diamine]: in assay [2], the “decrease in DAI score” value is recorded as “did not exhibit a statistically significant decrease”.
On the same count and under the same terms, then `Cc1cc(Nc2cc3ncccc3c(N[C@@H]3C[C@H]4CCC[C@@H](C3)N4S(=O)(=O)N3CC(C#N)C3)n2)n[nH]1` [Example 11], with “did not exhibit a statistically significant decrease”; and `Cc1cc(Nc2cc3nc(CO)ccc3c(N[C@@H]3C[C@H]4CC[C@@H](C3)N4C(=O)OCC(C)C)n2)n[nH]1` [Example 12, Isobutyl (1R,3s,5S)-3-((2-(hydroxymethyl)-7-((5-methyl-1H-pyrazol-3-yl)amino)-1,6-naphthyridin-5-yl)amino)-8-azabicyclo[3.2.1]octane-8-carboxylate], with “statistically significant decrease”; and `Cc1cc(Nc2cc3ncccc3c(N[C@@H]3C[C@H]4CC[C@@H](C3)N4S(=O)(=O)N3CC(C#N)C3)n2)n[nH]1` [Example 13], with “did not exhibit a statistically significant decrease”.
